This passage reports IC50 results from patent US8084481B2, “Substituted arylimidazolone and triazolone as inhibitors of vasopressin receptors” (Bayer Pharma Aktiengesellschaft, priority 2006, dated 2011).

In one test the target is T1, human V1a receptor (Homo sapiens, UniProt P37288).
T1 construct: expressed in transfected cells; host or cells: CHO K1 (ATCC), constitutively expressing a modified aequorin
The experiment in a line: Cellular in vitro test for determination of the vasopressin receptor activity (aequorin luminescence, CHO cells), human V1a. As to conditions: cell line transfected with the human V1a receptor, antagonism of [Arg8]-vasopressin, read-out: IC50 hV1a. The class given is cell-based. The source says: (§1) B-1. Cellular In Vitro Test for Determination of the Vasopressin Receptor Activity
(§2) The identification of agonists and antagonists of the V1a- and V2-vasopressin receptors in man and the rat and the quantification of the activity of the compounds according to the invention are effected by means of recombinant cell lines. These cells are originally derived from the ovarian epithelial cells of the hamster (Chinese Hamster Ovary, CHO K1, ATCC: American Type Culture Collection, Manassas, Va. 20108, USA). The test cell lines constitutively express a modified form of the calcium-sensitive photoprotein aequorin, which after reconstitution with the cofactor coelenterazine emits light on an increase in the free calcium concentrations [Rizzuto R, Simpson A W, Brini M, Pozzan T, Nature 358, 325-327 (1992)]. In addition, the cells are stably transfected with human or rat V1a- or V2 receptors. In the case of the Gs-coupled V2 receptors, the cells are stably transfected with a further gene which codes for the promiscuous Gα16-Protein [Amatruda T T, Steele D A, Slepak V Z, Simon M I, Proceedings of the National Academy of Science USA 88, 5587-5591 (1991)]. The resulting vasopressin receptor test cells react to stimulation of the recombinantly expressed vasopressin receptors with an intracellular release of calcium ions, which can be quantified by the resulting aequorin luminescence with a suitable luminometer [Milligan G, Marshall F, Rees S, Trends in Pharmacological Sciences 17, 235-237 (1996)].
(§3) On the day before the text, the cells are plated out in culture medium (DMEM, 10% FCS, 2 mM glutamine, 10 mM HEPES) in 384-well microtitre plates and kept in a cell incubator (96% atmospheric humidity, 5% v/v CO2, 37° C.). On the test day, the culture medium is replaced by a Tyrode solution (140 mM NaCl, 5 mM KCl, 1 mM MgCl2, 2 mM CaCl2, 20 mM glucose, 20 mM HEPES) which in addition contains the cofactor coelenterazine (50 μM), and the microtitre plate is then incubated for a further 3-4 hours. The test substances in various concentrations are placed beforehand in the wells of the microtitre plate for 10 to 20 minutes, before the agonist [Arg^8]-vasopressin is added and the resulting light signal immediately measured in the luminometer. The IC50 values are calculated by means of the computer program GraphPad PRISM (Version 3.02).

For a further test, the target named is T2, human V2 receptor (Homo sapiens, UniProt P30518).
T2 construct: expressed in transfected cells; host or cells: CHO K1 (ATCC), constitutively expressing a modified aequorin and stably co-transfected with promiscuous G-alpha-16
The experiment in a line: Cellular in vitro test for determination of the vasopressin receptor activity (aequorin luminescence, CHO cells), human V2. The class given is cell-based. As to conditions: cell line transfected with the human V2 receptor, antagonism of [Arg8]-vasopressin, read-out: IC50 hV2.
Excerpt: as §1, §2, §3

The structures appear in SMILES notation.

T2 sequence (P30518 whole entry): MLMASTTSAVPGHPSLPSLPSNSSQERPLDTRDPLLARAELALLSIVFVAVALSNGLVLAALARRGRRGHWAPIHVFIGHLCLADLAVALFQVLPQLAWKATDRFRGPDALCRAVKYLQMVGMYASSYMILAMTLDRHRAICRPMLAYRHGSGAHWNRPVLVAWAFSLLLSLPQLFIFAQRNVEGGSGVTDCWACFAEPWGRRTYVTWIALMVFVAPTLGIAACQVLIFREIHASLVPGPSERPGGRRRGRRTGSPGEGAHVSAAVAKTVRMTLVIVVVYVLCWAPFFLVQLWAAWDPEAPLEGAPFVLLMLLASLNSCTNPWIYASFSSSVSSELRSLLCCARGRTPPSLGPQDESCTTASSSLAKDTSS
T1 sequence (P37288 whole entry): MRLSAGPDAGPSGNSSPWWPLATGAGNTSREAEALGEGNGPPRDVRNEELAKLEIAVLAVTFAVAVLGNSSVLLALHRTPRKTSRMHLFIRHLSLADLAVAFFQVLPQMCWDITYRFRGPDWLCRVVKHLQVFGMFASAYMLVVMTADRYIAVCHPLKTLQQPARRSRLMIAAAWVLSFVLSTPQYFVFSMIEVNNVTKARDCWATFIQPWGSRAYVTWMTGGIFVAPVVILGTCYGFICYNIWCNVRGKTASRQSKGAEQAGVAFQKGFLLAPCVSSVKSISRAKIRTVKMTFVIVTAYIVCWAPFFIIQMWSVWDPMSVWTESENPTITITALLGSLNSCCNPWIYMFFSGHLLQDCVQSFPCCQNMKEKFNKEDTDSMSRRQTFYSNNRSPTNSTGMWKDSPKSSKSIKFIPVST

As for `O=C(Cn1nc(-c2ccc(Cl)cc2)n(CC(O)C(F)(F)F)c1=O)NCCc1ccccc1OC(F)(F)F` (stereo not shown) [Example 359], the concentration for half-maximal inhibition (IC50) at human V1a receptor came out at 19 nM; on human V2 receptor it was 9 nM.
Consider `CC(C)(NC(=O)Cn1nc(-c2ccc(Cl)cc2)n(Cc2cccc(F)c2)c1=O)c1cccc(C(F)(F)F)c1` [Example 433, 2-[3-(4-chlorophenyl)-4-(3-fluorobenzyl)-5-oxo-4,5-dihydro-1H-1,2,4-triazol-1-yl]-N-1-methyl-1-[3-(trifluoromethyl)phenyl]ethyl-acetamide], for which the 50% inhibitory concentration (IC50) on human V1a receptor came to 199 nM; at human V2 receptor, 9 nM.
On the same counts, the results for `Cc1ccc(-c2nn(CC(=O)NC(C)(C)c3cccc(C(F)(F)F)c3)c(=O)n2Cc2ccccc2F)s1` [Example 219] are 90 nM and 9 nM.
With `CC(C)(NC(=O)Cn1nc(-c2ccc(Cl)cc2Cl)n(C2CC2)c1=O)c1cccc(C(F)(F)F)c1` [Example 230], the IC50 on human V1a receptor worked out at 783 nM; on human V2 receptor it was 83 nM.
On the same counts, the results for `COc1cc(Cl)ccc1-c1nn(CC(=O)NC(C)(C)c2cccc(C(F)(F)F)c2)c(=O)n1Cc1cccc(F)c1` [Example 262] are 157 nM and 5 nM.
With `COc1ccccc1CCNC(=O)Cn1nc(-c2ccc(Cl)cc2)n(C2CC2)c1=O` [Example 159], the IC50 at human V1a receptor was found to be 440 nM; at human V2 receptor it was 420 nM.
`COc1ccc(Cn2c(-c3ccc(Cl)cc3)nn(CC(=O)NCc3cccc(C(F)(F)F)c3)c2=O)cc1` [Example 153, 2-[3-(4-chlorophenyl)-4-(4-methoxyphenylmethyl)-5-oxo-4,5-dihydro-1H-1,2,4-triazol-1-yl]-N-[3-(trifluoromethyl)phenylmethyl]acetamide]: the results for the half-maximal inhibitory concentration (IC50) at human V1a receptor and on human V2 receptor were 42 nM and 12 nM, respectively.
On the same counts, the results for `COc1cc(Cl)ccc1-c1nn(CC(=O)NCc2ccccc2C(F)(F)F)c(=O)n1Cc1ccccc1F` [Example 227] are 8 nM and 37 nM.
Turning to `CC(C)(NC(=O)Cn1nc(-c2ccc(Cl)cc2)n(Cc2cccc(C(=O)O)c2)c1=O)c1cccc(C(F)(F)F)c1` [Example 471, 3-(3-(4-chlorophenyl)-1-[2-(1-methyl-1-[3-(trifluoromethyl)phenyl]ethylamino)-2-oxoethyl]-5-oxo-1,5-dihydro-4H-1,2,4-triazol-4-ylmethyl)-benzoic acid], the figures for the half-maximal inhibitory concentration (IC50) at human V1a receptor and on human V2 receptor were 39 nM and 2 nM, respectively.
For `O=C(Cn1nc(-c2ccc(Cl)cc2)n(C2CC2)c1=O)NCC1(c2ccccc2F)CCCC1` [Example 305], the figures for the IC50 on human V1a receptor and on human V2 receptor were 93 nM and 784 nM, respectively.
Regarding `Cc1csc(-c2nn(CC(=O)NCc3cccc(C(F)(F)F)c3)c(=O)n2CC(C)C)c1Cl` [Example 496, 2-[3-(3-chloro-4-methyl-2-thienyl)-4-isobutyl-5-oxo-4,5-dihydro-1H-1,2,4-triazol-1-yl]-N-[3-(trifluoromethyl)phenylmethyl]-acetamide], the figures for the IC50 at human V1a receptor and on human V2 receptor were 166 nM and 576 nM, respectively.
On to `NC(=O)C(NC(=O)Cn1nc(-c2ccc(Cl)cc2)n(CC(O)C(F)(F)F)c1=O)c1cccc(C(F)(F)F)c1` (stereo not shown) [Example 509, 2-[3-(4-chlorophenyl)-5-oxo-4-(3,3,3-trifluoro-2-hydroxypropyl)-4,5-dihydro-1H-1,2,4-triazol-1-yl]-N-{2-amino-2-oxo-1-[3-(trifluoromethyl)phenyl]ethyl}-acetamide], for which the IC50 was found to be 8 nM at human V1a receptor and 4 nM on human V2 receptor.
On the same counts, the results for `O=C(Cn1nc(-c2ccc(Cl)cc2)n(Cc2ccccc2F)c1=O)NC1(Cc2ccccc2C(F)(F)F)CC1` [Example 284] are 9 nM and 191 nM.
For `O=C(Cn1nc(-c2ccc(Cl)cc2)n(Cc2ccccc2F)c1=O)NCc1c(C(F)(F)F)cccc1C(F)(F)F` [Example 288], in that order: 761 nM and 666 nM.
For `COCCn1c(-c2ccc(Cl)cc2)nn(CC(=O)NCC2(c3ccccc3F)CCCC2)c1=O` [Example 494], in that order: 49 nM and 257 nM.
With `O=C(Cn1nc(-c2ccc(Cl)cc2)n(Cc2ccccc2F)c1=O)NCc1cccc(C(F)(F)F)c1Cl` [Example 296], the half-maximal inhibitory concentration (IC50) on human V1a receptor came out at 54 nM; at human V2 receptor, 9 nM.
`O=C(Cn1cc(-c2ccc(Cl)s2)n(Cc2ccccc2F)c1=O)NCc1cccc(C(F)(F)F)c1` [Example 503]: the IC50 was found to be 25 nM at human V1a receptor and 221 nM on human V2 receptor.
On the same counts, the results for `CSc1ccccc1CNC(=O)Cn1nc(-c2ccc(Cl)cc2)n(Cc2ccccc2F)c1=O` [Example 394, 2-[3-(4-chlorophenyl)-4-(2-fluorobenzyl)-5-oxo-4,5-dihydro-1H-1,2,4-triazol-1-yl]-N-[2-(methylthio)benzyl]-acetamide] are 19 nM and 19 nM.
As to `CC(C)(NC(=O)Cn1nc(-c2ccc(Cl)cc2)n(CC(=O)C(F)(F)F)c1=O)c1cccc(C(F)(F)F)c1` [Example 489, 2-[3-(4-chlorophenyl)-5-oxo-4-(3,3,3-trifluoro-2-oxopropyl)-4,5-dihydro-1H-1,2,4-triazol-1-yl]-N-{1-methyl-1-[3-(trifluoromethyl)phenyl]ethyl}-acetamide], the IC50 at human V1a receptor turned out to be 35 nM; at human V2 receptor, 2 nM.
Consider `Cc1c(CNC(=O)Cn2nc(-c3ccc(Cl)cc3)n(C3CC3)c2=O)cccc1C(F)(F)F` [Example 325], for which the values for the IC50 on human V1a receptor and on human V2 receptor were 107 nM and 28 nM, respectively.
Turning to `O=C(Cn1nc(-c2ccc(Cl)cc2)n(C2CC2)c1=O)NC1(Cc2ccccc2C(F)(F)F)CC1` [Example 320], the IC50 at human V1a receptor came out at 24 nM; on human V2 receptor, 1520 nM.
For the compound `O=C(Cn1cc(-c2ccc(Cl)cc2)n(CC2CC2)c1=O)NCCc1ccccc1C(F)(F)F` [Example 508], the IC50 on human V1a receptor was 5 nM; at human V2 receptor, 336 nM.
Turning to `CC(C)(NC(=O)Cn1nc(-c2ccc(Cl)cc2)n(CC(N)=O)c1=O)c1cccc(C(F)(F)F)c1` [Example 476], the 50% inhibitory concentration (IC50) at human V1a receptor was 1230 nM; on human V2 receptor it was 94 nM.
In the case of `O=C(Cn1nc(-c2ccccc2O)n(Cc2cccc(F)c2)c1=O)NCCc1ccccc1C(F)(F)F` [Example 260], the figures for the half-inhibitory concentration (IC50) at human V1a receptor and on human V2 receptor were 30 nM and 154 nM, respectively.
On the same counts, the results for `CC(NC(=O)Cn1nc(-c2ccc(Cl)s2)n(Cc2ccccc2F)c1=O)c1nccc2ccccc12` (stereo not shown) [Example 252] are 18 nM and 447 nM.
For `CCC(O)Cn1c(-c2ccc(Cl)cc2)nn(CC(=O)NC(C)(C)c2cccc(C(F)(F)F)c2)c1=O` (single isomer, unassigned) [Example 485, 2-[3-(4-chlorophenyl)-5-oxo-4-(2-hydroxybutyl)-4,5-dihydro-1H-1,2,4-triazol-1-yl]-N-{1-methyl-1-[3-(trifluoromethyl)phenyl]ethyl}-acetamide], in that order: 12 nM and 2 nM.
`O=C(Cn1nc(-c2ccc(Cl)cc2)n(C2CC2)c1=O)NC(C(=O)NC1CC1)c1ccccc1C(F)(F)F` (stereo not shown) [Example 340]: the IC50 at human V1a receptor amounted to 39 nM; on human V2 receptor it was 1150 nM.
For `O=C(Cn1nc(-c2ccc(Cl)cc2)n(CC2CCCCC2)c1=O)NCc1cccc(C(F)(F)F)c1` [Example 59], in that order: 1100 nM and 9 nM.
Consider `CC(=O)Cn1c(-c2ccc(Cl)cc2)nn(CC(=O)NCc2cccc(C(F)(F)F)c2)c1=O` [Example 415], for which the IC50 at human V1a receptor amounted to 870 nM; on human V2 receptor it was 26 nM.
For `O=C(CCn1nc(-c2ccc(Cl)cc2)n(C2CC2)c1=O)NCc1cccc(C(F)(F)F)c1` [Example 25], in that order: 6300 nM and 180 nM.
Regarding `O=C(Cn1nc(-c2ccc(Cl)cc2)n(Cc2ccccc2F)c1=O)NCc1cccc(C(F)(F)F)c1` [Example 145], the IC50 at human V1a receptor came out at 95 nM; at human V2 receptor it was 7 nM.
Turning to `O=C(Cn1nc(-c2ccc(Cl)cc2)n(CC(O)C(F)(F)F)c1=O)NC(C(=O)NC1CC1)c1cccc(C(F)(F)F)c1` (stereo not shown) [Example 510, 2-([3-(4-chlorophenyl)-5-oxo-4-(3,3,3-trifluoro-2-hydroxypropyl)-4,5-dihydro-1H-1,2,4-triazol-1-yl]acetylamino)-N-cyclopropyl-2-[3-(trifluoromethyl)phenyl]-acetamide], the 50% inhibitory concentration (IC50) at human V1a receptor is 4 nM; on human V2 receptor, 7 nM.
